Reference: patent US12121510B2 (Cedars-Sinai Medical Center, priority 2016, dated 2024)

Tests used:
Caki-1 = assay: Renal cancer cell growth IC50 (crystal violet); format: cell-based, human; settings: Example 11
Description: Exemplary Embodiments are generally performed as follows, unless otherwise noted. Simvastatin is purchased from Ark Pharm, Inc. (Arlington Heights, IL). Cisplatin (CIS) is purchased from MedKoo Biosciences, Inc. (Chapel Hill, NC). Dihydroartemisinin is purchased from TCI America (Portland, OR). All other chemicals and reagents are purchased from standard sources such as Sigma-Aldrich and/or VWR and are of highest quality available. Puromycin dihydrochloride was purchased from Alfa Aesar (Tewksbury, MA). Deionized water ([…]) used for making solutions is obtained from Milli-Q Direct Ultrapure Water System from Millipore (Billerica, MA, USA). All intermediates are characterized by 1H NMR and mass analysis and the purity of compounds are analyzed by HPLC. 1H NMR data are collected on Bruker 400 MHz spectrometers using standard parameters; chemical shifts are reported in ppm (δ) in reference to residual non-deuterated solvent. ESI mass spectroscopy analysis is performed using a Thermo Fisher LTQ Orbitrap Elite system. IC50 is the half maximal inhibitory concentration and determined is determined by crystal violet assay unless otherwise noted.
(§1) The crystal violet assay is performed as follows, unless otherwise noted. Cell lines are supplemented with RPMI 1640 medium, 10% fetal bovine serum, 1% PenStrep, and placed in a humidified atmosphere containing 5% CO2 at 37° C. 5,000 cells/well renal cancer cells and 10,000 cells/well lymphoma cells are seeded in 96 well plates in 100 microliter medium/per well for 24 h. […] Renal cancer cells are fixed with 3.7% paraformaldehyde for 15 minutes and are stained with Crystal violet solution (0.5% in 25% methanol) for 30 minutes. After rinsing with water cell layers are dried and decolorized with Sorenson citrate with shaking for 20 minutes. Light absorption of the extracted supernatant is read at 595 nm. Lymphoma cell growth was evaluated using MTT and cells are incubated for 4 hours. 100 microliters of isopropanol is added, and the extracted supernatant fraction is read at absorption maximum of 595 nm.
Standard cell culture conditions typically are RPMI 1640 medium, 10% fetal bovine serum, 1% PenStrep, and are performed in a humidified atmosphere containing 5% CO2 at 37° C. Generally, 5,000 cells/well-10,000 cells/well are seeded in 96 well plates in 100 microliter medium/per well for 24 h, or as described in Example 16, unless otherwise noted. Certain cells require specialized media, growth factors, antibiotics, or culture condition adjustments, as will be apparent to a person of ordinary skill in the art.
as §1, with “Cell” for “The crystal violet assay is performed as follows, unless otherwise noted. Cell”, “cultured as follows. […]” for “supplemented with RPMI 1640 medium, 10% fetal bovine serum, 1% PenStrep, and placed in a humidified atmosphere containing 5% CO2 at 37° C.”, “is” for “was”

[1] = system: caspase-3 and-7 activities in Caki-1 cells; assay: CaspaseGlo 3/7 luminescent apoptosis assay; format: cell-based, human; settings: 24 hours after treatment
Description: Caspase-Glo® 3/7 Assay (Promega) is a homogeneous, luminescent assay that measures caspase-3 and-7 activities that provides a luminogenic caspase-3/7 substrate, which contains the tetrapeptide sequence DEVD, in a reagent optimized for caspase activity, luciferase activity and cell lysis. A single Caspase-Glo 3/7 Reagent in an “add-mix measure” format results in cell lysis, followed by caspase cleavage of the substrate and generation of a “glow-type” luminescent signal, produced by luciferase. Luminescence is proportional to the amount of caspase activity present. Caspase-Glo® 3/7 Reagent is prepared, mixed and the reagent and the 96-well plate containing cells are equilibrated to room temperature. […] The plate is incubated at room temperature for 30 minutes to 3 hours, depending upon the cell culture system (optimal incubation period determined empirically). Luminescence of each sample is measured in a plate-reading luminometer. […]
B-cell lymphoma cells (Namalwa) are cultured in RPMI 1640, 10% fetal bovine serum, 1% PenStrep, and placed in a humidified atmosphere containing 5% CO2 at 37° C. […] 100 microliters of Caspase-Glo 3/7 assay is added and luminescence is then read. […] 100 microliters of Caspase-Glo 3/7 assay is added and luminescence is then read.

[2] = system: PARP, Caspase 9 and p53 in Caki-1 cells; assay: Western blot of apoptosis related proteins; format: cell-based, human
Description: Results also confirm elevated expression of p53 (a tumor suppressor) in human kidney cancer Caki cells (see panel D in FIG. 9).

[3] = system: normal mouse kidney and liver; assay: Immunohistochemical staining of normal kidney and liver; format: in vivo; settings: mice harbored with human Burkitt's lymphoma
Description: (§2) These normal kidney and liver tissues were obtained from mice harbored with human Burkitt's lymphoma.

[4] = system: Namalwa human lymphoma xenograft tumors; assay: Immunohistochemical staining of xenograft tumors; format: in vivo; settings: Namalwa xenograft tumors of mice
Description: as §2

mouse kidney = assay: Kidney histopathology (hematoxylin and eosin); format: in vivo; settings: normal kidney of mice implanted with kidney tumors

Compound: CC1(C)C(/C=C/C2=C(Cl)C(=C/C=C3/N(CCCCCC(=O)[O][Pt]([NH2])([NH2])([OH])([Cl])[Cl])c4ccccc4C3(C)C)/CCC2)=[N+](CCCCS(=O)(=O)[O-])c2ccccc21 [DZ-CIS ester]
- In vitro growth of Caki-1 (Caki-1): inhibited by DZ-CIS
- Level of apoptosis, CaspaseGlo 3/7 [1]: increased apoptosis
- Expression of apoptosis related proteins PARP, Caspase 9 and p53 [2]: induces elevation of apoptosis related proteins
- Apoptosis markers (cleaved caspas-3 and M30) / damage in normal kidney and liver [3]: protects normal kidney and liver from damage by CIS
- Apoptosis in xenograft tumors (cleaved caspase-3 and M30) [4]: increased apoptosis
- Cell proliferation in xenograft tumors (Ki67) [4]: decreased cell proliferation
- Kidney damage, histopathology (mouse kidney): protects from more severe kidney damage
